Test: Dissolution of steroid with alpha-cyclodextrin in aqueous suspension
Type: physicochemical
Conditions: 120 mg alpha-cyclodextrin added to 5 ml aqueous suspension, room temperature, agitated for several minutes
Method: 120 mg of alpha-cyclodextrin was added to 5 ml of an aqueous suspension of dexamethasone at room temperature.

For C[C@@H]1C[C@H]2[C@@H]3CCC4=CC(=O)C=C[C@]4(C)[C@@]3(F)[C@@H](O)C[C@]2(C)[C@@]1(O)C(=O)CO [dexamethasone, 9-Fluoro-11β,17,21-trihydroxy-16α-methylpregna-1,4-diene-3,20-dione], which “dissolution of steroid with alpha-cyclodextrin” value is on record?
Its value is “did not dissolve and remained in suspension”.
